Measured values as given in publication PMC3004914, “Classification of Drugs Based on Properties of Sodium Channel Inhibition: A Comparative Automated Patch-Clamp Study” (PLoS ONE, 2010).
Where “and” joins values, the source holds several entries; their conditions need not be identical. Identical values can stand only once. Like-named read-outs stand apart in the source and are kept apart here.

Legend:
[1] = biological target: T1, rNav1.2 sodium channels (HEK-293 cells) (Rattus norvegicus, UniProt P04775); assay: 5 Hz train protocol, QPatch automated patch-clamp; type: cell-based; settings: for potency estimated from few doses: −90 mV, read-out: IC50; for potency: in words;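 for UD (use-dependence of the inhibition): UD = (A3/A4)/(A1/A2) as ratios of peak amplitudes from Figure 1A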
T1 sequence (P04775 whole entry): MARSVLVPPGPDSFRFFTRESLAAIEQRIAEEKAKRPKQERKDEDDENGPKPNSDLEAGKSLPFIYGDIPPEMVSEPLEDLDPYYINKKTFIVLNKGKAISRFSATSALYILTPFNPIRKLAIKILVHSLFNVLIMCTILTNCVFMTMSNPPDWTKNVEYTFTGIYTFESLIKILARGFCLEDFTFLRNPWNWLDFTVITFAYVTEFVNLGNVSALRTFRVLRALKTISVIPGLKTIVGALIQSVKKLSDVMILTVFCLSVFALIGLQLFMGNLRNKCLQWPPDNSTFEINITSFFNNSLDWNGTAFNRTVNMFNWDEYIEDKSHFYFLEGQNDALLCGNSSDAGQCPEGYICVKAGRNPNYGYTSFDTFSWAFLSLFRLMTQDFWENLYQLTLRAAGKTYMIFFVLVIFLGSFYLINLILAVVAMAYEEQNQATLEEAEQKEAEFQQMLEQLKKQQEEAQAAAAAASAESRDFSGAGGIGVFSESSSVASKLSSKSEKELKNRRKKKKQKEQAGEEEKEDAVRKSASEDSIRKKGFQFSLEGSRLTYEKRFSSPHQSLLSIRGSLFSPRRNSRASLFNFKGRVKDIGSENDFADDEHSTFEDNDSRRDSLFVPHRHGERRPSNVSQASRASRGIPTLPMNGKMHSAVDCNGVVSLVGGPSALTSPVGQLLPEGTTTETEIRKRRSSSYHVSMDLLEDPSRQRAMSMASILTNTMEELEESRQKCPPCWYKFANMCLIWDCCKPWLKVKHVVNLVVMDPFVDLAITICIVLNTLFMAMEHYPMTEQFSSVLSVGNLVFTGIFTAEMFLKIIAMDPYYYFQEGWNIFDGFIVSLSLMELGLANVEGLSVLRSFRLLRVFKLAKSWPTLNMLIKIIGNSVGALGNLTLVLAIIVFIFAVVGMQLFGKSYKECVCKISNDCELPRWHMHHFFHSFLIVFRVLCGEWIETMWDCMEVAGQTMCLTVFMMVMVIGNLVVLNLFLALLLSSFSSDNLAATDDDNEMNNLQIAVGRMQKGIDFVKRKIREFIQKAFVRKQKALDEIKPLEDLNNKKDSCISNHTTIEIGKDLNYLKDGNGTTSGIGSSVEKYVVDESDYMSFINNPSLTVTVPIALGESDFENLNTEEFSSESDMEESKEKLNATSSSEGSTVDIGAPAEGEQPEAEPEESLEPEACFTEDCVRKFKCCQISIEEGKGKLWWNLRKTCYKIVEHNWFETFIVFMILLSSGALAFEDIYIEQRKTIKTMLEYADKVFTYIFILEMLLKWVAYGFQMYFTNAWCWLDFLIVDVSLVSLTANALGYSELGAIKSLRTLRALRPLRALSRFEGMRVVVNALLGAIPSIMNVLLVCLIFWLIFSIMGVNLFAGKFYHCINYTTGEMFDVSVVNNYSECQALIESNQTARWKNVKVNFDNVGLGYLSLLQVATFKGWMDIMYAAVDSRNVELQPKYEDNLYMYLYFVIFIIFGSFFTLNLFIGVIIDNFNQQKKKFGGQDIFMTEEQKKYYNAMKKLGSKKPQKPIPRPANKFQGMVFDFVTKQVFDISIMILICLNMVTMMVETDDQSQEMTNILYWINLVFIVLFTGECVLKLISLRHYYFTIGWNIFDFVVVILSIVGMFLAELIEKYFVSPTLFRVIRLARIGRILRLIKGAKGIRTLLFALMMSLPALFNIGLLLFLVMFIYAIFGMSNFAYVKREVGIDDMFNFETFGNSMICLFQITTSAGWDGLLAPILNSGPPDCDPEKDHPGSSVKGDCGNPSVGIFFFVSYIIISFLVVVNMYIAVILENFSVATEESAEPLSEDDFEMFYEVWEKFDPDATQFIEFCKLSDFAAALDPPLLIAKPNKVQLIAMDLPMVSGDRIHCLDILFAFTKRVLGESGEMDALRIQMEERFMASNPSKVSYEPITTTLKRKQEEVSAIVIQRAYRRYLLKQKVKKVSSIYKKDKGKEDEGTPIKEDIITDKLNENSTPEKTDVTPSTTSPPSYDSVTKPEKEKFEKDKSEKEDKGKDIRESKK
In short: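 rNav1.2 in stable HEK-293 cells, QPatch whole-cell; 5 Hz trains of five pulses from −90 to −10 mV, repeated every 20 s; 10 control trains, 10 with drug, then washout. Inhibition of peak current at a single concentration gave IC50; reversibility, use-dependence and τoff also derived.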

[2] = biological target: T1, rNav1.2 sodium channels (HEK-293 cells); assay: steady-state inactivation protocol (availability curves), QPatch automated patch-clamp; type: cell-based
In short: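 HEK-293 cells stably expressing rat Nav1.2, recorded by automated patch clamp in extracellular solution pH 7.3 containing CdCl2 and TEA. Availability measured with 400 ms pre-pulses from −150 to −30 mV, then a 10 ms test pulse to −10 mV. Kr, Ki (four-state model) and Kr/Ki state-dependence derived from inhibition and ΔV1/2.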

sodium channels = settings: averaged literature data, cited from earlier work; for Ki: read-out: Ki−Lit; for Kd: read-out: Kr−Lit
[3] = human plasma, cited from earlier work
[4] = 30 μM, 500 s assigned where irreversible
[5] = 30 μM, Rev = A5/A1 after washout
[6] = HEK293, 30 μM, −90 mV holding potential, 5 Hz train, read-out: Inh (inhibited fraction)
[7] = HEK293, calculated from Inh at single concentration 30 μM, 5 Hz train
[8] = HEK293, read-out: Inh (inhibited fraction) at holding potential −150 mV
[9] = HEK293, 100 µM, read-out: Inh (inhibited fraction) at holding potential −150 mV

Row | Structure (SMILES) | τon ([1]; 30 μM) [s] | UD (use-dependence of the inhibition) ([1]; 30 μM, 5 Hz train) | τoff [1, 4] [s] | Rev (reversibility) [1, 5] | use-dependence (UD) ([1]; 5 Hz train) | inhibition at 30 µM [1, 6] [%] | potency estimated from few doses [1, 7] [µM] | potency [1] | Ki (sodium channels) [µM] | Kd (sodium channels) [µM] | plasma conc. ([3]; as printed in each cell) | plasma conc. ([3]; as printed in the µg/ml cell) [µM] | inhibition at 30 µM [2, 8] [%] | inhibition at 100 µM [2, 9] [%] | also measured
1 | Cc1ccc(-c2nc(C)c(CN3CCN(C(c4ccccc4)c4ccccc4)CC3)[nH]2)cc1 [LIF, Lifarizine] | 96.5 | 1.02 | 500 | 0.01 | no use-dependence | 78 | 5.29 | high potency | 0.19 | 10.2 | 0.02 [59] µg/ml | 0.046 | – | – | onset and offset kinetics (time constants) [1]: very slow kinetics; reversibility ([1]; 200 s of washout): apparent irreversibility; ΔV1/2 (shift of availability curve) ([2]; 1 µM): −4.39 mV; inhibition at 1 µM ([2]; HEK293, 1 µM, read-out: Inh (inhibited fraction) at holding potential −150 mV): 2%; Ki ([2]; arithmetic mean, 1 µM, read-out: Ki-Kapp arith): 0.53 µM; Ki ([2]; arithmetic mean, 1 µM, read-out: Ki-ΔV1/2 arith): 0.96 µM; Kd ([2]; arithmetic mean, 1 µM, read-out: Kr arith): 63.2 µM; Kd ([2]; geometric mean, from Inh at −150 mV, 1 µM, read-out: Kr (resting state affinity)): 55.8 µM; Ki ([2]; geometric mean, from apparent affinity, 1 µM, read-out: Ki−Kapp (inactivated state affinity)): 0.5 µM; Ki ([2]; geometric mean, from shift of availability curve, 1 µM, read-out: Ki−ΔV1/2 (inactivated state affinity)): 0.91 µM and 0.92 µM
2 | Nc1nc2ccc(OC(F)(F)F)cc2s1 [RIL, Riluzole] | 3.9 | 0.95 | 17.6 | – | no use-dependence | 27 | 81 | – | 0.49 | 62.4 | 0.17 [44] µg/ml | 0.739 | 8 | 22 | Rev (reversibility) [1]: 0.52
3 | O=C1NC(=O)C(c2ccccc2)(c2ccccc2)N1 [DPH, 5,5-diphenyl-hydantoin] | – | – | – | – | – | – | – | among the least potent SCIs | 16.2 | 701 | 10 [44] µg/ml | 39.64 | – | – | τoff ([1]; 300 μM): 15.96 s; τon ([1]; 300 μM, 3 s assigned where too short to be resolved): 5.20 s; UD (use-dependence of the inhibition) ([1]; 300 μM, 5 Hz train): 1.01; Rev (reversibility) ([1]; 300 μM, Rev = A5/A1 after washout): 0.75; inhibition at 300 µM ([1]; HEK293, 300 μM, −90 mV holding potential, 5 Hz train, read-out: Inh (inhibited fraction)): 18%; potency estimated from few doses ([1]; HEK293, calculated from Inh at single concentration 300 μM, 5 Hz train): 1390 µM; ΔV1/2 (shift of availability curve) ([2]; 300 μM): −4.93 mV; inhibition at 300 µM ([2]; HEK293, 300 µM, read-out: Inh (inhibited fraction) at holding potential −150 mV): 12%; Ki ([2]; arithmetic mean, 300 µM, read-out: Ki-Kapp arith): 78.1 µM; Ki ([2]; arithmetic mean, 300 µM, read-out: Ki-ΔV1/2 arith): 172 µM; Kd ([2]; arithmetic mean, 300 µM, read-out: Kr arith): 2950 µM; Kd ([2]; geometric mean, from Inh at −150 mV, 300 µM, read-out: Kr (resting state affinity)): 2540 µM; Ki ([2]; geometric mean, from apparent affinity, 300 µM, read-out: Ki−Kapp (inactivated state affinity)): 70.8 µM; Ki ([2]; geometric mean, from shift of availability curve, 300 µM, read-out: Ki−ΔV1/2 (inactivated state affinity)): 150 µM
4 | Cc1ccc(C(=O)C(C)CN2CCCCC2)cc1 (centres unmarked) [TOL, Tolperisone] | – | – | – | – | – | – | – | – | 5.07 | 384 | 0.43 [57] µg/ml | 1.508 | – | 21 | τon ([1]; 100 μM): 5.57 s; UD (use-dependence of the inhibition) ([1]; 100 μM, 5 Hz train): 1.14; τoff ([1]; 100 μM, 500 s assigned where irreversible): 7.42 s; Rev (reversibility) ([1]; 100 μM, Rev = A5/A1 after washout): 0.95; inhibition at 100 µM ([1]; HEK293, 100 μM, −90 mV holding potential, 5 Hz train, read-out: Inh (inhibited fraction)): 23%; potency estimated from few doses ([1]; HEK293, calculated from Inh at single concentration 100 μM, 5 Hz train): 336 µM; ΔV1/2 (shift of availability curve) ([2]; 100 μM): −6.47 mV; Ki ([2]; arithmetic mean, 100 µM, read-out: Ki-Kapp arith): 24.3 µM; Ki ([2]; arithmetic mean, 100 µM, read-out: Ki-ΔV1/2 arith): 43.2 µM; Kd ([2]; arithmetic mean, 100 µM, read-out: Kr arith): 399 µM; Kd ([2]; geometric mean, from Inh at −150 mV, 100 µM, read-out: Kr (resting state affinity)): 391 µM; Ki ([2]; geometric mean, from apparent affinity, 100 µM, read-out: Ki−Kapp (inactivated state affinity)): 21 µM and 21.1 µM; Ki ([2]; geometric mean, from shift of availability curve, 100 µM, read-out: Ki−ΔV1/2 (inactivated state affinity)): 30.9 µM
5 | CNCCCN1c2ccccc2CCc2ccccc21 [DMI, Desipramine] | 32.02 | 1.32 | 51.82 | 0.43 | – | 62 | 18.3 | – | 1.15 | 29.2 | 0.1 [44] µg/ml | 0.330 | 35 | – | –
